Here are results for ten molecules from ChEMBL document CHEMBL3632605, “Structure-guided discovery of 2-aryl/pyridin-2-yl-1H-indole derivatives as potent and selective hepsin inhibitors” (Bioorg Med Chem Lett, 2015).

The nature of data set [1]: Stability in mouse liver microsomes assessed as compound remaining at 1 uM after 40 mins by LC-MS/MS analysis. As to conditions: read-out: Stability. Format: ADME. Background: Microsomes from liver hold many membrane-bound enzymes, among them those of drug oxidation.
The test system of data set [2] is PC-3. Nature of the data set: Cytotoxicity against human PC3 cells at 10 uM after 72 hrs by calcein AM assay. In kind it is cell-based. As to conditions: pc-3, 72 h.
Data set [3] relates to PC-3. Nature of the data set: Antimigratory activity in human PC3 cells by transwell-chamber assay. Format: functional, cell-based.
The target of data set [4] is Urokinase-type plasminogen activator (Homo sapiens, UniProt P00749). Kind of data set: Inhibition of human uPA by fluorescence based assay using L-PyroGlu-Gly-Arg-pNA.HCl as substrate.
The next data set deals with Serine protease hepsin (Homo sapiens, UniProt P05981). Nature of the data set: Inhibition of human recombinant hepsin by fluorescence based assay using 65 uM BOC-Gln-Arg-Arg -AMC as substrate.
Sequence of Serine protease hepsin (P05981 1-162 limits assumed): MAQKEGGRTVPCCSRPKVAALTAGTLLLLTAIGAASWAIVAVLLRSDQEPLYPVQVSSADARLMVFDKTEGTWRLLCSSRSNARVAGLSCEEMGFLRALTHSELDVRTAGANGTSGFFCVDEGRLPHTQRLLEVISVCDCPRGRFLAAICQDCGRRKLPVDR
Sequence of Serine protease hepsin (P05981 163-417 limits assumed): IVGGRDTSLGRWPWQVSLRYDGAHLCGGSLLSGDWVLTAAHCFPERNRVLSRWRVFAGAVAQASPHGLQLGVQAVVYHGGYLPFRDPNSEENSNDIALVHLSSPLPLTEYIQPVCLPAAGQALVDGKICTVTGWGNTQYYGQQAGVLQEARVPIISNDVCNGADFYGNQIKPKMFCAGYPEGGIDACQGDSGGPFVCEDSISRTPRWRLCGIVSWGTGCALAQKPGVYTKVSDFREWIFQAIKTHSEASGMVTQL
Data set [5] in a line: Cytotoxicity against human LNCaP-C42B4 cells at 10 uM after 72 hrs by calcein AM assay. In kind it is cell-based. As to conditions: lncap-c42b4, 72 h.
A short description of data set [6]: Stability in mouse liver microsomes assessed as compound remaining at 1 uM after 20 mins by LC-MS/MS analysis. In kind it is ADME. As to conditions: read-out: Stability.
Data set [7] has as its target T1, Suppressor of tumorigenicity 14 protein (Homo sapiens, UniProt Q9Y5Y6).
T1 sequence (Q9Y5Y6 whole entry): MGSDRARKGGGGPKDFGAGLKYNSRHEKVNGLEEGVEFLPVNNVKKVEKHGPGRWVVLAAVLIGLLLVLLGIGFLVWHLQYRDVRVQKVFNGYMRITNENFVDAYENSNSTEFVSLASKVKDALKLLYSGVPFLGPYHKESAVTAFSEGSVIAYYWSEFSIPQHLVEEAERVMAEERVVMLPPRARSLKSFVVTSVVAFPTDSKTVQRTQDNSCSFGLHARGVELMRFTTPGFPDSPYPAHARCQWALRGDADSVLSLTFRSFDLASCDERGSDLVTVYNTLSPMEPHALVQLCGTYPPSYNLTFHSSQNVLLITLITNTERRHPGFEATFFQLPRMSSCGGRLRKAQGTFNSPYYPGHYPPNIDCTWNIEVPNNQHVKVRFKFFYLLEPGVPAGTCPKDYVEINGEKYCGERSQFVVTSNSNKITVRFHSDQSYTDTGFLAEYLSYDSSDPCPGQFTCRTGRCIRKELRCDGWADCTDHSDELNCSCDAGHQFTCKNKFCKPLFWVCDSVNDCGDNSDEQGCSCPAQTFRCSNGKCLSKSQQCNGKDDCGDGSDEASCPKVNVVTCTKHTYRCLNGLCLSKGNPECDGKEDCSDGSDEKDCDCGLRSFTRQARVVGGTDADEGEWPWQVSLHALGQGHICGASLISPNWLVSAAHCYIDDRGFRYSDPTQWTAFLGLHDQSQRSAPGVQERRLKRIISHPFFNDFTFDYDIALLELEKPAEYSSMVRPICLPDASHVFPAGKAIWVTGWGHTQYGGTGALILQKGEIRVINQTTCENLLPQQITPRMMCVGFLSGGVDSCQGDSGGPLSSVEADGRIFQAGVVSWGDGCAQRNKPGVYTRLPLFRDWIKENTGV
Kind of data set: Inhibition of human recombinant matriptase by fluorescence based assay using 20 uM Boc-Gln-Ala-Arg-7-amido-4-methyl coumarinhydrobromide as substrate.

Data set [8] is described as follows: Antimigratory activity in human LNCaP-C42B4 cells by transwell-chamber assay. In kind it is functional, cell-based.
Data set [9] can be described thus: Aqueous solubility of compound at pH 7.4 by HPLC-UV/Vis analysis. In kind it is physicochemical. As to conditions: aqueous medium.
Another data set addresses Trypsin (Homo sapiens, UniProt P07477+P07478+P35030). Nature of the data set: Inhibition of human trypsin by fluorescence based assay using 25 uM Boc-Gln-Ala-Arg-7-amido-4-methyl coumarinhydrobromide as substrate. Format: protein assay.
Data set [10] in a line: Antinvasive activity in human LNCaP-C42B4 cells by matrigel assay. In kind it is functional, cell-based.
Data set [11] relates to PC-3. Kind of data set: Antinvasive activity in human PC3 cells by matrigel assay. Format: functional, cell-based.
The target in the next data set is Prothrombin (Homo sapiens, UniProt P00734). Nature of the data set: Inhibition of human thrombin by fluorescence based assay using 100 uM Boc-Gln-Ala-Arg-7-amido-4-methyl coumarinhydrobromide as substrate.
In data set [12] the target is Plasminogen (Homo sapiens) (UniProt P00747). Kind of data set: Inhibition of human plasmin at 5 uM by fluorescence based assay using pyroGlu-Phe-Lys-pNA.HCl as substrate.
Sequence of Plasminogen (Homo sapiens) (P00747 97-580 limits assumed): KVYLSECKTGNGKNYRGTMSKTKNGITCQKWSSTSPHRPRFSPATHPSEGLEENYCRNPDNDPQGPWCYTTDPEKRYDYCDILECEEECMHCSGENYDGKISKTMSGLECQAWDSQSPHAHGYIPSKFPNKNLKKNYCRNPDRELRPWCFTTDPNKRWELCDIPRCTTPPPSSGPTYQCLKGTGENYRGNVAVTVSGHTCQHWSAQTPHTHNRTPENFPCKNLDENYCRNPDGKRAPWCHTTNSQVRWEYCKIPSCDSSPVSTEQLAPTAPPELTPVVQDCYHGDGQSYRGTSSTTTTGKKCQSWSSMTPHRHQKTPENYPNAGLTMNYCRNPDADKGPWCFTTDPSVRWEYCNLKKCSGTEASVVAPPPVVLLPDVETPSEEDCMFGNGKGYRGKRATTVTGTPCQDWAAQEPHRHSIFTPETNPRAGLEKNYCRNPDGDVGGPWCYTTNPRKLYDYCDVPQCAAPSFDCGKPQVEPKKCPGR
Sequence of Plasminogen (Homo sapiens) (P00747 581-810 limits assumed): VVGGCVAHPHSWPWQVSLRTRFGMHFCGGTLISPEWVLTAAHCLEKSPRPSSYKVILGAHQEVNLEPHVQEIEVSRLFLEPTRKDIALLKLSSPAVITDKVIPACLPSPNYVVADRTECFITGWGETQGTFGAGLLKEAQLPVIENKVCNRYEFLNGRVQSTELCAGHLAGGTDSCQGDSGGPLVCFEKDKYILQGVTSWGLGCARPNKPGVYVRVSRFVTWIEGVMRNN
A further data set has as its target Coagulation factor X (Bos taurus, UniProt P00743). Nature of the data set: Inhibition of bovine factor 10a by fluorescence based assay using CH3OCO-D-CHA-Gly-Arg-pNA.AcoH as substrate.

pEC50, pKi: −log10 of the molar value. In brackets after ≈: the same amount, converted by molar mass.

Sequence of Coagulation factor X (P00743 41-180 limits assumed): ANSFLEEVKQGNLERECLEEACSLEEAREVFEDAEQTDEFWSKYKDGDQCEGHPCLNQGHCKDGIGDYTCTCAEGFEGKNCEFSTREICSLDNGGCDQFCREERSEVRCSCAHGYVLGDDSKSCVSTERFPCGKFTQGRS
Sequence of Coagulation factor X (P00743 234-492 limits assumed): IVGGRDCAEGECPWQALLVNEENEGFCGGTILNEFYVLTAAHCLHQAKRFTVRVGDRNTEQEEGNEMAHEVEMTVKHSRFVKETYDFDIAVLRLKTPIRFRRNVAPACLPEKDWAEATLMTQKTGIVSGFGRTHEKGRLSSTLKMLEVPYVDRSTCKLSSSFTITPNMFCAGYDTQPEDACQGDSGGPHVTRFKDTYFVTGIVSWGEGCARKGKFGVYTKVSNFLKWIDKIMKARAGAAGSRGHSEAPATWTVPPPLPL

By pEC50 is commonly meant the negative decadic logarithm of the EC50, by convention in mol/L. By pKi is commonly meant −log10 of the Ki, conventionally taken in molar units. By solubility is commonly meant how much of the substance goes into solution per volume. In the case of `N=C(N)c1ccc2[nH]c(-c3cccc(N4CCCCC4)n3)cc2c1`, the remaining at 40 min, 1 µM in data set [1] was determined as 60%. Moreover, the results for the Activity (in the data set on PC-3 [2]; in data set [5]) were 10% and 12%, respectively. For the same molecule, the pEC50 in the data set on PC-3 [3] is 5.28; in data set [8], 5.59. The pKi in [4] was 5.64; at Serine protease hepsin it was 6.22; in data set [7], 5.82. Also, the remaining at 20 min, 1 µM in data set [6] is 82%. For the same molecule, in data set [9], the solubility is 135 µM (≈ 43.1 µg/mL).

`N=C(N)c1ccc2[nH]ccc2c1`: the pKi on Serine protease hepsin was 3.30.

Broadly, the Ki is the dissociation constant of the complex between target and ligand, obtained from inhibition or displacement. Low readings indicate higher affinity, high ones lower affinity. What is called inhibition is the percentage by which the read-out fell short of the control. Regarding `N=C(N)c1ccc2[nH]c(-c3cccc(C4(O)CCCCC4)n3)cc2c1`, the remaining at 40 min, 1 µM in [1] was 64%. Also, the Activity is 10% with PC-3 [2] and 8% in [5]. The pEC50 in the data set on PC-3 [3] is 5.59; in data set [10] it was 6.22; in the data set on PC-3 [11], 5.46; in data set [8], 6.05. The pKi in data set [4] was 5.89; at Serine protease hepsin, 7.00; in [7] it was 5.68; at Prothrombin, 5.68; at Coagulation factor X, 5.85. The Ki on Trypsin is 400 nM. Moreover, the remaining at 20 min, 1 µM in data set [6] stood at 86%. Besides, in data set [12], the inhibition is 24%. This molecule also registered a solubility in data set [9] of 148 µM (≈ 49.5 µg/mL).

Regarding `CC(C)c1cccc(-c2cc3cc(C(=N)N)ccc3[nH]2)c1O`, the pKi on Serine protease hepsin was 5.31; in data set [7] it was 5.36; at Prothrombin, 5.72; at Coagulation factor X, 6.00. On Trypsin, this molecule displayed a Ki of 800 nM.

Turning to `N=C(N)c1ccc2[nH]c(-c3cccc(C4(F)CCCCC4)n3)cc2c1`, the pKi is 5.57 in data set [4]; 6.40 at Serine protease hepsin; 6.10 in [7]; 5.44 on Prothrombin; 6.15 on Coagulation factor X. At Trypsin, this molecule returned a Ki of 500 nM. For the same molecule, in data set [12], the inhibition is 11%.

In the case of `N=C(N)c1ccc2[nH]c(-c3cccc(C4(O)CCCCC4)[n+]3[O-])cc2c1`, the remaining at 40 min, 1 µM in [1] came out at 99%. Moreover, the Activity was 8% with PC-3 [2] and 1% in data set [5]. For the same molecule, the pEC50 in the data set with PC-3 [3] is 5.74; in data set [10] it was 6.30; in the data set with PC-3 [11], 5.68; in data set [8] it was 6.22. The pKi in data set [4] is 5.11; on Serine protease hepsin, 7.00; in data set [7], 5.96; on Prothrombin, 5.07; at Coagulation factor X, 5.09. On Trypsin, the Ki came to 800 nM. For the same molecule, in data set [6], the remaining at 20 min, 1 µM came to 100%. In data set [12], this molecule yielded an inhibition of 11%. For the same molecule, the concentration in solution in [9] (solubility) was 200 µM (≈ 70.1 µg/mL).

`N=C(N)c1ccc2[nH]c(-c3ccccc3O)nc2c1`: the pKi on Serine protease hepsin was 4.40; at Coagulation factor X it was 4.85. The Ki at Trypsin is 23000 nM.

For the molecule `N=C(N)c1ccc2[nH]c(-c3ccccc3O)cc2c1`, the figures for the pKi (on Serine protease hepsin; in data set [7]) were 4.46 and 4.22, respectively. This molecule showed a Ki on Trypsin of 8000 nM.

Turning to `CC(C)c1cc(Cl)cc(-c2cc3cc(C(=N)N)ccc3[nH]2)c1O`, the pKi (on Serine protease hepsin; in [7]) was 5.32 each time. The inhibition in data set [12] was 5%.

Consider `N=C(N)c1ccc2[nH]c(-c3cccc(N4CCCCC4)c3O)cc2c1`, for which, in data set [1], the remaining at 40 min, 1 µM worked out at 22%. Further, the results for the Activity (in the data set with PC-3 [2]; in [5]) were 22% and 18%, respectively. Also, the pEC50 in the data set with PC-3 [3] was 5.31; in data set [8] it was 5.38. The pKi at Serine protease hepsin was 5.85; in data set [7], 6.30. For the same molecule, the remaining at 20 min, 1 µM in data set [6] stood at 38%. Also, in data set [9], the solubility is 126 µM (≈ 42.1 µg/mL).
